From patent US12077503B2, “Substituted cyclic amides and their use as herbicides” (FMC CORPORATION, priority 2015, dated 2024)

Assays:
Assay type in all cases: in vivo
[1] = tested on: barnyardgrass (Echinochloa crus-galli); test: Test A preemergence; settings: Echinochloa crus-galli, pre-emergence, 240 h, Preemergence
Outline: (§1)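 Treatment is preemergence as a directed soil spray after planting, or postemergence at the one- to two-leaf stage, with test chemical in a non-phytotoxic solvent mixture plus surfactant. Plants stay in the greenhouse about 10 d before visual injury scoring on a 0 to 100 scale versus untreated controls.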

[2] = tested on: ryegrass, Italian (Italian ryegrass, Lolium multiflorum); test: Test A preemergence; settings: Lolium multiflorum, pre-emergence, 240 h, Preemergence
Outline: as §1

[3] = tested on: giant foxtail (Setaria faberii); test: Test A preemergence; settings: Setaria faberi, pre-emergence, 240 h, Preemergence
Outline: as §1

Kochia (Kochia scoparia) [4] = test: Test A preemergence; settings: Bassia scoparia, pre-emergence, 240 h, Preemergence
Outline: as §1

[5] = tested on: pigweed (Amaranthus retroflexus); test: Test A preemergence; settings: Amaranthus retroflexus, pre-emergence, 240 h, Preemergence
[6] = tested on: ragweed (common ragweed, Ambrosia elatior); test: Test A preemergence; settings: Ambrosia artemisiifolia, pre-emergence, 240 h, Preemergence
Outline: as §1

[7] = tested on: sedge, umbrella (small-flower umbrella sedge, Cyperus difformis); test: Test B flooded paddy test; settings: Cyperus difformis, 250 g ai/ha, Flood; 0 to 100 scale where 0 is no effect and 100 is complete control; read-out: Sedge, Umbrella plant response rating
Outline: (§2)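 Response scored visually against untreated controls, 0 = no effect and 100 = complete control, 13–15 d after treatment in the greenhouse. Compounds added to paddy water held 3 cm above soil surface. Treatment given at 2-leaf stage.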

[8] = tested on: barnyardgrass (Echinochloa crus-galli); test: Test B flooded paddy test; settings: Echinochloa crus-galli, Flood, 250 g ai/ha; scale of 0 to 100 where 0 is no effect and 100 is complete control; read-out: Barnyardgrass plant response rating
Outline: as §2

[9] = tested on: ducksalad (Heteranthera limosa); test: Test B flooded paddy test; settings: Heteranthera limosa, Flood, 250 g ai/ha; scale of 0 to 100 where 0 is no effect and 100 is complete control; read-out: Ducksalad plant response rating
Outline: as §2

rice (Oryra sativa) = test: Test B flooded paddy test; settings: Oryza sativa, Flood, 250 g ai/ha; scale of 0 to 100 where 0 is no effect and 100 is complete control; read-out: Rice plant response rating
Outline: as §2

[10] = tested on: blackgrass (Alopecurus myosuroides); test: Test A postemergence; settings: Alopecurus myosuroides, post-emergence, 240 h, Postemergence, read-out: Plant response rating, Blackgrass
Outline: as §1

corn (Zea mays) = test: Test A postemergence; settings: Zea mays, post-emergence, 240 h, Postemergence
Outline: as §1

[11] = tested on: barnyardgrass (Echinochloa crus-galli); test: Test A postemergence; settings: Echinochloa crus-galli, post-emergence, 240 h, Postemergence, read-out: Plant response rating, Barnyardgrass
Outline: as §1

[12] = tested on: wheat (Triticum aestivum); test: Test A postemergence; settings: Triticum aestivum, post-emergence, 240 h, Postemergence, read-out: Plant response rating, Wheat
Outline: as §1

[13] = tested on: ryegrass, Italian (Italian ryegrass, Lolium multiflorum); test: Test A postemergence; settings: Lolium multiflorum, post-emergence, 240 h, Postemergence, read-out: Plant response rating, Ryegrass, Italian
Outline: as §1

[14] = tested on: giant foxtail (Setaria faberii); test: Test A postemergence; settings: Setaria faberi, post-emergence, 240 h, Postemergence, read-out: Plant response rating, Foxtail, Giant
Outline: as §1

Kochia (Kochia scoparia) [15] = test: Test A postemergence; settings: Bassia scoparia, post-emergence, 240 h, Postemergence, read-out: Plant response rating, Kochia
Outline: as §1

[16] = tested on: pigweed (Amaranthus retroflexus); test: Test A postemergence; settings: Amaranthus retroflexus, post-emergence, 240 h, Postemergence, read-out: Plant response rating, Pigweed
Outline: as §1

[17] = tested on: Galium (catchweed bedstraw, Galium aparine); test: Test A postemergence; settings: Galium, post-emergence, 240 h, Postemergence, read-out: Plant response rating, Galium
Outline: as §1

[18] = tested on: ragweed (common ragweed, Ambrosia elatior); test: Test A postemergence; settings: Ambrosia artemisiifolia, post-emergence, 240 h, Postemergence, read-out: Plant response rating, Ragweed
Outline: as §1

[19] = 125 g ai/ha, visual injury after approximately 10 d, 0 to 100 scale where 0 is no effect and 100 is complete control
[20] = 31 g ai/ha, visual injury after approx. 10 d, 0 to 100 scale, 0 no effect, 100 complete control

O=C(Nc1cccc(F)c1F)[C@H]1C(=O)N(OCc2ccccc2)CC[C@@H]1c1cccc(Cl)c1 [Compound 997]
0%: pest or weed control at 125 g/ha ([1]; 125 g ai/ha, visual injury rating after approximately 10 d, read-out: Barnyardgrass plant response rating (0 to 100 scale, 0 is no effect, 100 is complete control)) | pest or weed control at 31 g/ha ([1]; 31 g ai/ha, 0 to 100 scale (0 no effect, 100 complete control), read-out: Plant response rating, Barnyardgrass) | pest or weed control at 125 g/ha ([2]; 125 g ai/ha, visual injury rating after approximately 10 d, read-out: Ryegrass, Italian plant response rating (0 to 100 scale, 0 is no effect, 100 is complete control)) | pest or weed control at 31 g/ha ([2]; 31 g ai/ha, 0 to 100 scale (0 no effect, 100 complete control), read-out: Plant response rating, Ryegrass, Italian) | pest or weed control at 125 g/ha ([3]; 125 g ai/ha, visual injury rating after approximately 10 d, read-out: Foxtail, Giant plant response rating (0 to 100 scale, 0 is no effect, 100 is complete control)) | pest or weed control at 31 g/ha ([3]; 31 g ai/ha, 0 to 100 scale (0 no effect, 100 complete control), read-out: Plant response rating, Foxtail, Giant) | pest or weed control at 125 g/ha (Kochia (Kochia scoparia) [4]; 125 g ai/ha, visual injury rating after approximately 10 d, read-out: Kochia plant response rating (0 to 100 scale, 0 is no effect, 100 is complete control)) | pest or weed control at 31 g/ha (Kochia (Kochia scoparia) [4]; 31 g ai/ha, 0 to 100 scale (0 no effect, 100 complete control), read-out: Plant response rating, Kochia) | pest or weed control at 125 g/ha ([5]; 125 g ai/ha, visual injury rating after approximately 10 d, read-out: Pigweed plant response rating (0 to 100 scale, 0 is no effect, 100 is complete control)) | pest or weed control at 31 g/ha ([5]; 31 g ai/ha, 0 to 100 scale (0 no effect, 100 complete control), read-out: Plant response rating, Pigweed) | pest or weed control at 125 g/ha ([6]; 125 g ai/ha, visual injury rating after approximately 10 d, read-out: Ragweed plant response rating (0 to 100 scale, 0 is no effect, 100 is complete control)) | pest or weed control at 31 g/ha ([6]; 31 g ai/ha, 0 to 100 scale (0 no effect, 100 complete control), read-out: Plant response rating, Ragweed) | pest or weed control at 250 g/ha [7] | pest or weed control at 250 g/ha [8] | pest or weed control at 250 g/ha [9] | pest or weed control at 250 g/ha (rice (Oryra sativa)) | pest or weed control at 125 g/ha [10, 19] | pest or weed control at 31 g/ha [10, 20] | Corn plant response rating (crop injury, 0 = no effect, 100 = complete kill) at 125 g/ha (corn (Zea mays); [19]) | Corn plant response rating (crop injury, 0 = no effect, 100 = complete kill) at 31 g/ha (corn (Zea mays); [20]) | pest or weed control at 125 g/ha [11, 19] | pest or weed control at 31 g/ha [11, 20] | plant injury at 125 g/ha [12, 19] | plant injury at 31 g/ha [12, 20] | pest or weed control at 125 g/ha [13, 19] | pest or weed control at 31 g/ha [13, 20] | pest or weed control at 125 g/ha [14, 19] | pest or weed control at 31 g/ha [14, 20] | pest or weed control at 125 g/ha (Kochia (Kochia scoparia) [15]; [19]) | pest or weed control at 31 g/ha (Kochia (Kochia scoparia) [15]; [20]) | pest or weed control at 125 g/ha [16, 19] | pest or weed control at 31 g/ha [16, 20] | pest or weed control at 125 g/ha [17, 19] | pest or weed control at 31 g/ha [17, 20] | pest or weed control at 125 g/ha [18, 19] | pest or weed control at 31 g/ha [18, 20]
